Data on two compounds can be found in patent US9334229B2, “Hydroxytyrosol derivatives, their method of preparation and use in personal care” (Eastman Chemical Company, priority 2013, dated 2016).

Some results are limits rather than exact numbers.

Data set [1] is described as follows: Control reaction without enzyme (toluene / pH 7 phosphate buffer). It is filed as physicochemical. The method, then:
3,4-Bis(ethoxycarbonyloxy)phenethyl palmitate (100 mg; 0.186 mmol) was dissolved in 2 mL of toluene. […] The mixture was stirred vigorously and periodically analyzed by HPLC. After 24 h, LC analysis indicated 75.4% conversion of Compound 2 to hydroxytyrosol. After 48 h, LC analysis indicated 82.6% conversion of Compound 2 to hydroxytyrosol.

For data set [2], the target named is T1, Novozyme 435 (Candida antarctica lipase B immobilized on an acrylic resin) (Moesziomyces antarcticus, UniProt P41365).
T1 construct: purchased Novozyme 435
Put plainly: Enzymatic hydrolysis with Novozyme 435 in toluene / pH 7 phosphate buffer, conversion to hydroxytyrosol by HPLC. It is filed as in vitro ADME. As to conditions: 100 mg compound, 100 mg Novozyme 435, toluene / pH 7 phosphate buffer, LC analysis. As for the experimental part: 3,4-Bis(ethoxycarbonyloxy)phenethyl palmitate (100 mg; 0.186 mmol) was dissolved in 2 mL of toluene. Novozyme 435 (Candida antarctica lipase B immobilized on an acrylic resin) (100 mg) was added followed by 2 mL of pH 7 phosphate buffer. The mixture was stirred vigorously and periodically analyzed by HPLC. After 24 h, LC analysis indicated 75.4% conversion of Compound 2 to hydroxytyrosol. After 48 h, LC analysis indicated 82.6% conversion of Compound 2 to hydroxytyrosol.
Hydroxytyrosol trihexanoate from Comparative Example 8 (100 mg; 0.223 mmol) was dissolved in 2 mL of toluene. Novozyme 435 (Candida antarctica lipase B immobilized on an acrylic resin)(100 mg) was added followed by 2 mL of pH 7 phosphate buffer. The mixture was stirred vigorously and periodically analyzed by HPLC. After 24 h, LC analysis indicated <1% conversion of hydroxytyrosol trihexanoate to hydroxytyrosol. After 48 h, LC analysis indicated <1% conversion of hydroxytyrosol trihexanoate to hydroxytyrosol.

T1 sequence (P41365 26-342): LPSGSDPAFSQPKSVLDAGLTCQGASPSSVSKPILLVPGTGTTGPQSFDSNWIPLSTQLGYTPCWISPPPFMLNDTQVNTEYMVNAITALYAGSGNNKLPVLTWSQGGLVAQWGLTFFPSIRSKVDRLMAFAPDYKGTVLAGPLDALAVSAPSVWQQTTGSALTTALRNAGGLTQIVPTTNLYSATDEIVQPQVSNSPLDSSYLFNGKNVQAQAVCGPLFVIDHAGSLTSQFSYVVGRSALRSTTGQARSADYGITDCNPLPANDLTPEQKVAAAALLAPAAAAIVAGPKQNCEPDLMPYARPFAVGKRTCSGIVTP

Take `CCCCCCCCCCCCCCCC(=O)OCCc1ccc(OC(=O)OCC)c(OC(=O)OCC)c1` [Compound 2, 3,4-Bis(ethoxycarbonyloxy)phenethyl palmitate]: the “conversion to hydroxytyrosol in control reaction without enzyme” value in data set [1] is given as “no conversion”.

On to `CCCCCC(=O)OCCc1ccc(OC(=O)CCCCC)c(OC(=O)CCCCC)c1` [Hydroxytyrosol trihexanoate, Hydroxytyrosol Trihexanoate], for which the “Enzymatic conversion to hydroxytyrosol” value in data set [2] (after 24 h) is listed as below 1%; in data set [2] (after 24 h, listed as hydroxytyrosol trihexanoate) it was below 1%; in data set [2] (after 48 h) it was below 1%; in data set [2] (after 48 h, listed as hydroxytyrosol trihexanoate) it was below 1%.
